From ChEMBL document CHEMBL5247609, “Novel nitric oxide-releasing derivatives of pyranocarbazole as antitumor agents: Design, synthesis, biological evaluation, and nitric oxide release studies” (Eur J Med Chem, 2022)
The source made the active and inactive calls. No cut-off for these calls is given here.

What was measured:
HeLa = assay: Antiproliferative activity against human HeLa cells assessed as reduction in cell viability after 96 hrs by MTT assay; assay type: functional, cell-based
NCI-H460 = assay: Antiproliferative activity against human H460 cells assessed as reduction in cell viability after 96 hrs by MTT assay; assay type: functional, cell-based; settings: NCI-H460, 96 h
MDA-MB-231 [1] = assay: Antiproliferative activity against human MDA-MB-231 cells assessed as reduction in cell viability after 96 hrs by MTT assay; assay type: functional, cell-based; settings: MDA-MB-231, 96 h
MDA-MB-231 [2] = assay: Antiproliferative activity against human MDA-MB-231 cells assessed as reduction in cell viability by measuring release of nitrite at 100 uM after 180 mins by Griess reagent analysis; assay type: functional; settings: 3 h
MX1 [3] = assay: Induction of morphological changes in human MX1 cells at 5 uM measured after 24 hrs by bright field inverted microscopic analysis; assay type: functional, cell-based
MDA-MB-231 [4] = assay: Induction of apoptosis in human MDA-MB-231 cells assessed as early apoptotic cells measured at 5 uM after 48 hrs by FITC-Annexin-V and propidium iodide based flow cytometric analysis (reference value: 2.71%); assay type: functional
MDA-MB-231 [5] = assay: Induction of apoptosis in human MDA-MB-231 cells assessed as viable cells measured at 5 uM after 48 hrs by FITC-Annexin-V and propidium iodide based flow cytometric analysis (reference value: 94.4% ); assay type: functional; settings: read-out: Activity
MX1 [6] = assay: Induction of apoptosis in human MX1 cells assessed as necrotic cells measured at 5 uM after 48 hrs by FITC-Annexin-V and propidium iodide based flow cytometric analysis (reference value: 0.055 %); assay type: functional
MX1 [7] = assay: Induction of morphological changes in human MX1 cells assessed as decrease in cell number at 5 uM measured after 24 hrs by bright field inverted microscopic analysis; assay type: functional, cell-based
MDA-MB-231 [8] = assay: Induction of apoptosis in human MDA-MB-231 cells assessed as late apoptotic cells measured at 5 uM after 48 hrs by FITC-Annexin-V and propidium iodide based flow cytometric analysis (reference value: 2.68%); assay type: functional
MX1 [9] = assay: Induction of apoptosis in human MX1 cells assessed as early apoptotic cells measured at 5 uM after 48 hrs by FITC-Annexin-V and propidium iodide based flow cytometric analysis (reference value: 6.30%); assay type: functional
MX1 [10] = assay: Induction of apoptosis in human MX1 cells assessed as viable cells measured at 5 uM after 48 hrs by FITC-Annexin-V and propidium iodide based flow cytometric analysis (reference value: 88.4%); assay type: functional; settings: read-out: Activity
MDA-MB-231 [11] = assay: Induction of apoptosis in human MDA-MB-231 cells assessed as necrotic cells measured at 5 uM after 48 hrs by FITC-Annexin-V and propidium iodide based flow cytometric analysis (reference value: 0.253 %); assay type: functional
MDA-MB-231 [12] = assay: Induction of morphological changes in human MDA-MB-231 cells assessed as decrease in cell size at 5 uM measured after 24 hrs by bright field inverted microscopic analysis; assay type: functional, cell-based
MDA-MB-231 [13] = assay: Antiproliferative activity against human MDA-MB-231 cells assessed as decrease in number of colony formation at 5 uM measured after 14 days by crystal violet staining based analysis; assay type: functional, cell-based; settings: time 14.0 day
MDA-MB-231 [14] = assay: Induction of morphological changes in human MDA-MB-231 cells assessed as decrease in cell number at 5 uM measured after 24 hrs by bright field inverted microscopic analysis; assay type: functional, cell-based
MX1 [15] = assay: Induction of apoptosis in human MX1 cells assessed as late apoptotic cells measured at 5 uM after 48 hrs by FITC-Annexin-V and propidium iodide based flow cytometric analysis (reference value: 5.24%); assay type: functional
MX1 [16] = assay: Induction of morphological changes in human MX1 cells assessed as decrease in cell size at 5 uM measured after 24 hrs by bright field inverted microscopic analysis; assay type: functional, cell-based
MDA-MB-231 [17] = assay: Induction of morphological changes in human MDA-MB-231 cells at 5 uM measured after 24 hrs by bright field inverted microscopic analysis; assay type: functional, cell-based

**Q.** For `CC1(C)C=Cc2c(c(/C=C/C(=O)N3CCC(Oc4no[n+]([O-])c4S(=O)(=O)c4ccccc4)CC3)cc3c2[nH]c2ccc(C(C)(C)C)cc23)O1`, which IC50 (HeLa) is on record?
**A.** Its IC50 is 1.35 µM.

**Q.** And the IC50 (NCI-H460)?
**A.** The IC50 was 2.68 µM.

**Q.** What about the IC50 (MDA-MB-231 [1]) of the same compound?
**A.** The IC50 was 3.52 µM.

**Q.** With `CC1(C)C=Cc2c(c(CNCCCOc3no[n+]([O-])c3S(=O)(=O)c3ccccc3)cc3c2[nH]c2ccc(C(C)(C)C)cc23)O1` as the compound, how does the IC50 (HeLa) read?
**A.** Its IC50 is 7.55 µM.

**Q.** What about the Nitrite release (MDA-MB-231 [2]) of the same compound?
**A.** The Nitrite release was 19.7 µM.

**Q.** And the IC50 (NCI-H460)?
**A.** Its IC50 is 7.49 µM.

**Q.** And the IC50 (MDA-MB-231 [1])?
**A.** The IC50 was 5.85 µM.

**Q.** `CC1(C)C=Cc2c(c(CN3CCC(CCOc4no[n+]([O-])c4S(=O)(=O)c4ccccc4)CC3)cc3c2[nH]c2ccc(C(C)(C)C)cc23)O1` was tested. Which IC50 (HeLa) did it give?
**A.** The IC50 was 1.83 µM.

**Q.** And the Nitrite release (MDA-MB-231 [2])?
**A.** The Nitrite release was 19.7 µM.

**Q.** And the IC50 (NCI-H460)?
**A.** Its IC50 is 1.96 µM.

**Q.** What about the IC50 (MDA-MB-231 [1]) of the same compound?
**A.** The IC50 was 3.5 µM.

**Q.** `CC1(C)C=Cc2c(c(/C=C/C(=O)N3CCC(COc4no[n+]([O-])c4S(=O)(=O)c4ccccc4)CC3)cc3c2[nH]c2ccc(C(C)(C)C)cc23)O1` was tested. Which IC50 (HeLa) did it give?
**A.** The IC50 was 0.43 µM.

**Q.** What about the Nitrite release (MDA-MB-231 [2]) of the same compound?
**A.** Its Nitrite release is 19.7 µM.

**Q.** What about the IC50 (NCI-H460) of the same compound?
**A.** The IC50 was 1.36 µM.

**Q.** And the IC50 (MDA-MB-231 [1])?
**A.** The IC50 was 0.29 µM.

**Q.** How did the IC50 (HeLa) turn out when `CC1(C)C=Cc2c(c(CN3CCC(COc4no[n+]([O-])c4S(=O)(=O)c4ccccc4)CC3)cc3c2[nH]c2ccc(C(C)(C)C)cc23)O1` was run?
**A.** The IC50 was 3.86 µM.

**Q.** And the IC50 (NCI-H460)?
**A.** The IC50 was 4.49 µM.

**Q.** And the IC50 (MDA-MB-231 [1])?
**A.** Its IC50 is 3.75 µM.

**Q.** Which IC50 (HeLa) does the source give for `CC(=O)O[C@H]1C(=O)[C@@]2(C)[C@H]([C@H](OC(=O)c3ccccc3)[C@]3(O)C[C@H](OC(=O)[C@H](O)[C@@H](NC(=O)c4ccccc4)c4ccccc4)C(C)=C1C3(C)C)[C@]1(OC(C)=O)CO[C@@H]1C[C@@H]2O` [PACLITAXEL] here?
**A.** Its IC50 is 0.006 µM.

**Q.** What about the Nitrite release (MDA-MB-231 [2]) of the same compound?
**A.** Its Nitrite release is 19.7 µM.

**Q.** What about the IC50 (MDA-MB-231 [1]) of the same compound?
**A.** The IC50 was 0.05 µM.

**Q.** Which results are given for `CC(CNC(=O)/C=C/c1cc2c([nH]c3ccc(C(C)(C)C)cc32)c2c1OC(C)(C)C=C2)Oc1no[n+]([O-])c1S(=O)(=O)c1ccccc1` (stereo not given)?
**A.** IC50 (HeLa): 0.21 µM; IC50 (NCI-H460): 0.99 µM; IC50 (MDA-MB-231 [1]): 0.2 µM

**Q.** What does the source list for `CN1CCN(Cc2cc3c([nH]c4ccc(C(C)(C)C)cc43)c3c2OC(C)(C)C=C3)CC1`?
**A.** Activity (MX1 [3]): Active; Activity (MDA-MB-231 [4]): 10.2%; viability at 5 µM (MDA-MB-231 [5]): 81.3%; IC50 (HeLa): 1.29 µM; Activity (MX1 [6]): 0.175%; Activity (MX1 [7]): Active; Activity (MDA-MB-231 [8]): 7.79%; Activity (MX1 [9]): 53.8%; viability at 5 µM (MX1 [10]): 36%; IC50 (NCI-H460): 3.59 µM; IC50 (MDA-MB-231 [1]): 3.43 µM; Activity (MDA-MB-231 [11]): 0.745%; Activity (MDA-MB-231 [12]): Active; Activity (MDA-MB-231 [13]): Active; Activity (MDA-MB-231 [14]): Active; Activity (MX1 [15]): 9.97%; Activity (MX1 [16]): Active; Activity (MDA-MB-231 [17]): Active

**Q.** How did the IC50 (HeLa) turn out when `CC1(C)C=Cc2c(c(/C=C/C(=O)NCCCOc3no[n+]([O-])c3S(=O)(=O)c3ccccc3)cc3c2[nH]c2ccc(C(C)(C)C)cc23)O1` was run?
**A.** The IC50 was 0.23 µM.

**Q.** And the Nitrite release (MDA-MB-231 [2])?
**A.** Its Nitrite release is 19.7 µM.

**Q.** And the IC50 (NCI-H460)?
**A.** Its IC50 is 1.28 µM.

**Q.** What about the IC50 (MDA-MB-231 [1]) of the same compound?
**A.** The IC50 was 0.18 µM.

**Q.** Which IC50 (HeLa) does the source give for `NCCOc1no[n+]([O-])c1S(=O)(=O)c1ccccc1` here?
**A.** The IC50 was 10.5 µM.

**Q.** And the IC50 (NCI-H460)?
**A.** The IC50 was 16.3 µM.

**Q.** And the IC50 (MDA-MB-231 [1])?
**A.** The IC50 was 12.7 µM.

**Q.** `CC1(C)C=Cc2c(c(/C=C/C(=O)N3CCC(CCOc4no[n+]([O-])c4S(=O)(=O)c4ccccc4)CC3)cc3c2[nH]c2ccc(C(C)(C)C)cc23)O1` was tested. Which IC50 (HeLa) did it give?
**A.** The IC50 was 0.24 µM.

**Q.** And the Nitrite release (MDA-MB-231 [2])?
**A.** The Nitrite release was 19.7 µM.

**Q.** What about the IC50 (NCI-H460) of the same compound?
**A.** The IC50 was 3.18 µM.

**Q.** What about the IC50 (MDA-MB-231 [1]) of the same compound?
**A.** The IC50 was 0.21 µM.

**Q.** `CC1(C)C=Cc2c(c(/C=C/C(=O)N3CCCC3COc3no[n+]([O-])c3S(=O)(=O)c3ccccc3)cc3c2[nH]c2ccc(C(C)(C)C)cc23)O1` (stereo not given) was tested. Which IC50 (HeLa) did it give?
**A.** The IC50 was 0.24 µM.

**Q.** What about the Nitrite release (MDA-MB-231 [2]) of the same compound?
**A.** Its Nitrite release is 19.7 µM.

**Q.** And the IC50 (NCI-H460)?
**A.** Its IC50 is 6.04 µM.

**Q.** And the IC50 (MDA-MB-231 [1])?
**A.** The IC50 was 0.38 µM.

**Q.** What does the source list for `CC1(C)C=Cc2c(c(CNCCOc3no[n+]([O-])c3S(=O)(=O)c3ccccc3)cc3c2[nH]c2ccc(C(C)(C)C)cc23)O1`?
**A.** IC50 (HeLa): 5.34 µM; Nitrite release (MDA-MB-231 [2]): 19.7 µM; IC50 (NCI-H460): 5.98 µM; IC50 (MDA-MB-231 [1]): 4.26 µM

**Q.** For `CC1(C)C=Cc2c(c(CN3CCC(Oc4no[n+]([O-])c4S(=O)(=O)c4ccccc4)CC3)cc3c2[nH]c2ccc(C(C)(C)C)cc23)O1`, which IC50 (HeLa) is on record?
**A.** Its IC50 is 1.62 µM.

**Q.** What about the Nitrite release (MDA-MB-231 [2]) of the same compound?
**A.** The Nitrite release was 19.7 µM.

**Q.** What about the IC50 (NCI-H460) of the same compound?
**A.** Its IC50 is 1.39 µM.

**Q.** And the IC50 (MDA-MB-231 [1])?
**A.** The IC50 was 3.51 µM.
